Active and inactive are the calls of the source. Unless noted, the calls are words filed in the database; no cut-off is given here.
Key:
[1] = biological target: Potassium voltage-gated channel subfamily KQT member 2/member 3 (Rattus norvegicus, UniProt O88943+O88944); assay: Mode of action assay-Dose response assay for KCNQ2 activators in the KCNQ2/KCNQ3 co-expressing cells on automated patch clamp. [Related pubchem assays (depositor defined):AID2239, AID2258, AID2287]; format: functional
[2] = biological target: Potassium voltage-gated channel subfamily KQT member 2 (Rattus norvegicus, UniProt O88943); assay: Mode of action assay-Dose response assay for compounds that activate KCNQ2 potassium channels on automated patch clamp. [Related pubchem assays (depositor defined):AID2239, AID2258, AID2287, AID493113]; format: functional
[3] = biological target: T1, Potassium voltage-gated channel subfamily KQT member 4 (Homo sapiens, UniProt P56696); assay: KCNQ4 thallium flux concentration-response – KCNQ4-expressing cells, selectivity assay for KCNQ2 activator project, dose response (AID 504416); format: functional, cell-based
T1 sequence (P56696 whole entry): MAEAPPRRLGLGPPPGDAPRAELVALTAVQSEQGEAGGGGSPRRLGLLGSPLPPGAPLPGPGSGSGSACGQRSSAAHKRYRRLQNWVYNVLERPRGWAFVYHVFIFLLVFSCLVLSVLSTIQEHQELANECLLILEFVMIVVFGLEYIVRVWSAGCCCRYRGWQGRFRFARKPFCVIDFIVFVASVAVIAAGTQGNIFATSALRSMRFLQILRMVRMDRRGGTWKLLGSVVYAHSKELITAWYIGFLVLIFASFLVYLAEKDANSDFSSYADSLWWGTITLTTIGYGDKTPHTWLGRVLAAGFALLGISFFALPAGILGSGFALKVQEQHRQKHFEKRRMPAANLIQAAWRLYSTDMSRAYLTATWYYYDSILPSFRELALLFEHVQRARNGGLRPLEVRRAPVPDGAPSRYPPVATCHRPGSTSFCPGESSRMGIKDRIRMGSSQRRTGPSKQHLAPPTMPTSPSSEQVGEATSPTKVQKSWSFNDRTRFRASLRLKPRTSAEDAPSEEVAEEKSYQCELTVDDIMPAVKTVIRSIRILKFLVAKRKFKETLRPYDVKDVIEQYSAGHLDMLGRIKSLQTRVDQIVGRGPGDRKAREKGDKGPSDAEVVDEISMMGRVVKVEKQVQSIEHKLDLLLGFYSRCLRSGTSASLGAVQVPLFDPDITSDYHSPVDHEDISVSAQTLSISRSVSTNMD

[4] = KCNQ1 potentiation selectivity check – automated patch clamp, KCNQ1-CHO cells, selectivity assay for KCNQ2 activator project, dose response (AID 493044); format: functional, cell-based
[5] = activation of human KCNQ1/KCNE1 current – automated patch clamp, CHO cells, selectivity assay for KCNQ2 activator project, dose response (AID 493042); format: functional
[6] = biological target: T1, Potassium voltage-gated channel subfamily KQT member 4; assay: activation of KCNQ4 potassium current – automated patch clamp, CHO cells, selectivity assay for KCNQ2 activator project, dose response (AID 493043); format: functional, cell-based
Jurkat = assay: SAR Analysis of small molecule inhibitors of T-cell specific antigen receptor-induced NF-kB activation in a Jurkat cell line using a luminescence assay. [Related pubchem assays (depositor defined):AID435003, AID435012, AID465]; format: functional, cell-based; settings: Homo sapiens
HEK293 [7] = assay: HEK293T cell viability loss, resazurin readout – resazurin fluorescence, cytotoxicity control for NF-kB activator project, SAR follow-up (AID 493251); format: functional, cell-based; settings: Homo sapiens
HEK293 [8] = assay: SAR Analysis of small molecule inhibitors of T-cell specific antigen receptor-induced NF-kB activation in a HEK-293T cell line using a luminescence assay. [Related pubchem assays (depositor defined):AID435003, AID435012, AID489026]; format: functional, cell-based; settings: Homo sapiens
[9] = biological target: T2, Platelet-activating factor acetylhydrolase 2, cytoplasmic (Mus musculus, UniProt Q8VDG7); assay: Late stage assay provider results from the probe development effort to identify inhibitors of PAFAH2: fluorescence-based cell-based gel-based Activity-Based Protein Profiling (ABPP) IC50. [Related pubchem assays (depositor defined):AID492956, AID492969, AID493030]; format: functional
T2 sequence (Q8VDG7 whole entry): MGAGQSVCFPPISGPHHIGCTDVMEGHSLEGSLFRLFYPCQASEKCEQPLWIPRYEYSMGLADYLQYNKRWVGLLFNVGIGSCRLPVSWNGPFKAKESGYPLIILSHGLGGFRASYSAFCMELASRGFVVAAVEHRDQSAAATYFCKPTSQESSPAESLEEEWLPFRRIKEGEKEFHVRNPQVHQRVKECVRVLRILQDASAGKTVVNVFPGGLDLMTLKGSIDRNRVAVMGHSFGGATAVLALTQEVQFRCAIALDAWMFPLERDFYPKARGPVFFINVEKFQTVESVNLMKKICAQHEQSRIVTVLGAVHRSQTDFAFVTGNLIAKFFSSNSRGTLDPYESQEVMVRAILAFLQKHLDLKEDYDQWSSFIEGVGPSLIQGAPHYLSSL

[10] = biological target: T2, Platelet-activating factor acetylhydrolase 2, cytoplasmic; assay: Late stage assay provider results from the probe development effort to identify inhibitors of PAFAH2: Fluorescence-based biochemical gel-based Activity-Based Protein Profiling (ABPP) IC50. [Related pubchem assays (depositor defined):AID492956, AID492969, AID493030]
Phospholipase D2 = Phospholipase D2 (Homo sapiens, UniProt O14939); assay: cellular phospholipase D2 inhibition IC50 – cell-based, dose response (AID 602147); format: functional;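 further: cellular assay in HEK293 cells overexpressing GFP-tagged PLD2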
Phospholipase D1 = Phospholipase D1 (Homo sapiens, UniProt Q13393); assay: cellular phospholipase D1 inhibition IC50 – cell-based, dose response (AID 602151); format: functional;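 further: cellular PLD1 assay in Calu-1 cells stimulated with PMA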
Cysteine protease ATG4B = Cysteine protease ATG4B (Homo sapiens, UniProt Q9Y4P1); format: functional;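 further: Fluorescence-based dose-response confirmation assay measuring inhibition of ATG4B activity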
Sequence of Cysteine protease ATG4B (Q9Y4P1 whole entry): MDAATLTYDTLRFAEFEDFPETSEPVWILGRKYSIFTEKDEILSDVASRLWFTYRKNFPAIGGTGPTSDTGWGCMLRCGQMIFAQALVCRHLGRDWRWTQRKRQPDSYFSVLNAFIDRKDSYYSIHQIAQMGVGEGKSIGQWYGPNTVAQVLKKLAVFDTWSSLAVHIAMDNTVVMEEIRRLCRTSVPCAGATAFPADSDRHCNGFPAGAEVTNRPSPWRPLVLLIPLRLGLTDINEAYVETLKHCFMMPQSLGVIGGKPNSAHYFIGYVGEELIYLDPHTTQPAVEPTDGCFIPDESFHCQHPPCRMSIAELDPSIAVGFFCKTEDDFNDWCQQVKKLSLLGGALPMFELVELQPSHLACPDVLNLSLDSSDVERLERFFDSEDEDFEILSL

[11] = biological target: Beta-adrenergic receptor kinase 1 (Homo sapiens, UniProt P25098); assay: aptamer displacement from bead-bound GRK2 – biochemical, cherry pick 1, bead flow cytometry, dose response (AID 504500)
[12] = biological target: T3, Small ubiquitin-related modifier 1 (Homo sapiens, UniProt P63165); assay: SUMO1 protein-protein binding blockers, potency – biochemical, FRET, dose response (AID 624383); format: functional; settings: read-out: IC50_Mean
T3 sequence (P63165 whole entry): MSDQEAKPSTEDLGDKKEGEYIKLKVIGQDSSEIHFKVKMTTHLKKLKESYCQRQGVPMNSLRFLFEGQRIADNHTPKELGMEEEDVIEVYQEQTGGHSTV

[13] = biological target: T3, Small ubiquitin-related modifier 1; assay: SUMO1 protein interaction blockers, potency – biochemical, fluorescence polarization, uHTS hits, dose response (AID 624382); format: functional; settings: read-out: IC50_Mean
[14] = biological target: T4, Dual specificity protein phosphatase 3 (Homo sapiens, UniProt P51452); assay: VHR1 phosphatase inhibitors, biochemical (AID 1878)
T4 sequence (P51452 whole entry): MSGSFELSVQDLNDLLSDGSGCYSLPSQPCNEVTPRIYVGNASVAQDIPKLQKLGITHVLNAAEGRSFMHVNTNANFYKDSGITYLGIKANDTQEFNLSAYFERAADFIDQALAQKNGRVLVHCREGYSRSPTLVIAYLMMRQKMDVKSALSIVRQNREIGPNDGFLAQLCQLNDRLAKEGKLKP

[15] = biological target: T5, Dual specificity protein phosphatase 6 (Rattus norvegicus, UniProt Q64346); assay: inhibition of rat DUSP6 enzyme activity – biochemical, in vitro, primary screen (AID 425)
T5 sequence (Q64346 whole entry): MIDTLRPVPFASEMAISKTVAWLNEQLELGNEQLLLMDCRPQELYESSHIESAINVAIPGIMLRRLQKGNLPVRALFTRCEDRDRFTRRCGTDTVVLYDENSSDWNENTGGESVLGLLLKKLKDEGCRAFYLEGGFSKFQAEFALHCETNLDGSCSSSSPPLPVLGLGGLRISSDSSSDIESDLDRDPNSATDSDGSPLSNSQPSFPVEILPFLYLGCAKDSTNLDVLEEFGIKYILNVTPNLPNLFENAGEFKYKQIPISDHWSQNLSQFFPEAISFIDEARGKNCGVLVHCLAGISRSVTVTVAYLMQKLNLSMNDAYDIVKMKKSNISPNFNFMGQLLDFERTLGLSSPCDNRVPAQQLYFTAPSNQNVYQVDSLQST

[16] = biological target: T6, Short transient receptor potential channel 4 (Mus musculus, UniProt Q9QUQ5); assay: calcium entry via TRPC4 opening agents – cell-based, HEK293 TRPC4/mu-opioid, Fluo-4 calcium, dose response (AID 434937); format: functional
T6 sequence (Q9QUQ5 whole entry): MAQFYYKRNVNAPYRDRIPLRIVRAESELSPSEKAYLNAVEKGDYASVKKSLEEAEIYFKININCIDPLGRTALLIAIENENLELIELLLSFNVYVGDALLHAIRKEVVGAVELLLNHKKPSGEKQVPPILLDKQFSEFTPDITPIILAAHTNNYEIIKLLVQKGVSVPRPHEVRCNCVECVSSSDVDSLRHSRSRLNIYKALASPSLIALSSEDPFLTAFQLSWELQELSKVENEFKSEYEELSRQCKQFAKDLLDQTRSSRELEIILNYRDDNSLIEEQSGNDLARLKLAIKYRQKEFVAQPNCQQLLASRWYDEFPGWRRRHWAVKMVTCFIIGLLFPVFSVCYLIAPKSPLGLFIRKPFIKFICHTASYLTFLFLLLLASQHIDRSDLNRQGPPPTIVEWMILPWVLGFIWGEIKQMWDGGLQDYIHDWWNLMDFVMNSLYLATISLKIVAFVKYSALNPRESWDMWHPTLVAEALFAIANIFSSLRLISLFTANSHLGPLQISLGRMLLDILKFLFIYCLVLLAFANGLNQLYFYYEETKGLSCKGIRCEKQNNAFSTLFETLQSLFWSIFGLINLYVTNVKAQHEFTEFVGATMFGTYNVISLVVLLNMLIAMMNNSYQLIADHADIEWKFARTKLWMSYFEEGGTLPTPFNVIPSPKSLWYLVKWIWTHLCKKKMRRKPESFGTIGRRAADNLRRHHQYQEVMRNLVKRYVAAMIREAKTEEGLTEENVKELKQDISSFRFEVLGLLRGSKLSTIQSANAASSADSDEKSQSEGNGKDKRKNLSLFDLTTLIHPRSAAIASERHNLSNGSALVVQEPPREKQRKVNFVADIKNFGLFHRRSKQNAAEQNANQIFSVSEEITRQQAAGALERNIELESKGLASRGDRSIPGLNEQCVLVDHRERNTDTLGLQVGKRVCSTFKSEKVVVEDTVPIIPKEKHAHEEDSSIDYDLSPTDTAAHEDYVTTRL

[17] = biological target: Multidrug resistance protein CDR2 (Candida albicans (strain SC5314 / ATCC MYA-2876) (Yeast), UniProt P78595); assay: inhibition of Nile Red efflux via Candida CDR2 – S. cerevisiae AD1-8u, singleplex, Cherry Pick1 hits, dose response (AID 588604); format: functional
[18] = biological target: Dual specificity tyrosine-phosphorylation-regulated kinase 1A (Rattus norvegicus, UniProt Q63470); format: biochemical, Homo sapiens
Phospholipase A2 = Phospholipase A2 (Homo sapiens, UniProt P04054); format: functional;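 further: confirmatory dose-response counterscreen on phospholipase A2, testing hits that came from an ultra-high-throughput screen for ATG4B inhibitors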
Sequence of Phospholipase A2 (P04054 whole entry): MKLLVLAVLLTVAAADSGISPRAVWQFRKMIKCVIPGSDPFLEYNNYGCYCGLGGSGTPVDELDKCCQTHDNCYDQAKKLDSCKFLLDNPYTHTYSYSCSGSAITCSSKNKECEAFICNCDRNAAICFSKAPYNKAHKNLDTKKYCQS

[19] = biological target: T7, Rac GTPase-activating protein 1 (Homo sapiens, UniProt Q9H0H5); assay: blockers of MgcRacGAP-driven Rac1 GTP hydrolysis – biochemical, ADP Hunter fluorescence, primary and confirmatory, confirmation (AID 624330); format: functional
T7 sequence (Q9H0H5 whole entry): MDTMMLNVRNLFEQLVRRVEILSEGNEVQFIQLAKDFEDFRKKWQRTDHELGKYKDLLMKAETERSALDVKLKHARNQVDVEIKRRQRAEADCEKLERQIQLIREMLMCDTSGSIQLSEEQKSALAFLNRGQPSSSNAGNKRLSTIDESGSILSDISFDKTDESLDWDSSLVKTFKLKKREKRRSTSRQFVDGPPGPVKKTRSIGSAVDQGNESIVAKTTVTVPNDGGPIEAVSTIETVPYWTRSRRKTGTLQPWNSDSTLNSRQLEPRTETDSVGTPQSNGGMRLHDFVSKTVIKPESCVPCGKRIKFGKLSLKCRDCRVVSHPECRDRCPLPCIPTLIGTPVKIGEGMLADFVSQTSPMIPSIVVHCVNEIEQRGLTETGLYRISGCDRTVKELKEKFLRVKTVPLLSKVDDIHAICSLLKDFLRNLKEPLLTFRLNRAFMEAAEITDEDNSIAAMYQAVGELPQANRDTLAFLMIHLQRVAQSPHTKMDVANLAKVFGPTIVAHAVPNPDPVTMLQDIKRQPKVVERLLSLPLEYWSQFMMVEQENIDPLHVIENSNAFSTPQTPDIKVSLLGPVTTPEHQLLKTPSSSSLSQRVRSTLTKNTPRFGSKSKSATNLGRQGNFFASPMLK

[20] = biological target: Multidrug resistance protein CDR1 (Candida albicans, UniProt P43071); assay: inhibition of Nile Red efflux via Candida CDR1 – S. cerevisiae AD1-8u, singleplex, Cherry Pick1 hits, dose response (AID 588606); format: functional
Sequence of Multidrug resistance protein CDR1 (P43071 whole entry, looked up): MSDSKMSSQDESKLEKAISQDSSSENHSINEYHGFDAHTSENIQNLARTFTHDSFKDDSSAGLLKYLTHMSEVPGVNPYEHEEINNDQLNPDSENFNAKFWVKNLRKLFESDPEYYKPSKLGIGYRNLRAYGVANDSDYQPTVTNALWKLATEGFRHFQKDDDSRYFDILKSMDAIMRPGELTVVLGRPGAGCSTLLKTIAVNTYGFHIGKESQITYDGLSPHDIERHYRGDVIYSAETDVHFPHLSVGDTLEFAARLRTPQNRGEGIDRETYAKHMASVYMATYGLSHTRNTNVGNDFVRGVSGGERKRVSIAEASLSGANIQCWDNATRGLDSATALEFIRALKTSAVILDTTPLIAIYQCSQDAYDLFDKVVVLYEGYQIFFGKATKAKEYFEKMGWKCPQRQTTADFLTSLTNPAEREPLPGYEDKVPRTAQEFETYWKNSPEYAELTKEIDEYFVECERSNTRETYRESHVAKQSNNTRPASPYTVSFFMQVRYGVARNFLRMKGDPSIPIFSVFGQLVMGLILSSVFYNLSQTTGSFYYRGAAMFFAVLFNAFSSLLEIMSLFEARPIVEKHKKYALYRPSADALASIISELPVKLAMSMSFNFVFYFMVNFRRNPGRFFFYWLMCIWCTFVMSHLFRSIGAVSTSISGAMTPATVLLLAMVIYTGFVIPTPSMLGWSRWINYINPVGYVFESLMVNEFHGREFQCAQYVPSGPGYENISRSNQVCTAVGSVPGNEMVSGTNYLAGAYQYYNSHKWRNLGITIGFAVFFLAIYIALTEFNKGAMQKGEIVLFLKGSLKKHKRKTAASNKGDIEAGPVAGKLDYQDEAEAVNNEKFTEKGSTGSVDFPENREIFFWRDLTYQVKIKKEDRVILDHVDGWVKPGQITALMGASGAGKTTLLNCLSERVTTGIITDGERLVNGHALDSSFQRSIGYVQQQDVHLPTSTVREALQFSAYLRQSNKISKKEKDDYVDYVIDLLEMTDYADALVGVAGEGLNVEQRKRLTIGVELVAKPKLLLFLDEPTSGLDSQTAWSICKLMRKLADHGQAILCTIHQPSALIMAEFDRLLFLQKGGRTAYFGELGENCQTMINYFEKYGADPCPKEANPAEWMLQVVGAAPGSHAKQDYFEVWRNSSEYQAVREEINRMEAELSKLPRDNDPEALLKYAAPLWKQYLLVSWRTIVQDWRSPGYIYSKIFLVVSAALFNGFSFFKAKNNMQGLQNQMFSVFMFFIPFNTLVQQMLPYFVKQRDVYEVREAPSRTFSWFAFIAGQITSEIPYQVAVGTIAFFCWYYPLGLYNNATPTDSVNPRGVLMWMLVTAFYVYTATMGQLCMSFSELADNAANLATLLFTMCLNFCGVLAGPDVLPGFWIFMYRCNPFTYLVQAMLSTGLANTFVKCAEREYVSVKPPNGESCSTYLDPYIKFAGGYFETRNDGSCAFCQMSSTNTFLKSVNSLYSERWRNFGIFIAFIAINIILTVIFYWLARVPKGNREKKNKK

[21] = biological target: T4, Dual specificity protein phosphatase 3; assay: VHR1 phosphatase inhibitors, primary screen, biochemical, absorbance, uHTS (AID 1654)
Insulin-degrading enzyme [22] = biological target: T8, Insulin-degrading enzyme (Homo sapiens, UniProt P14735); assay: cellular IDE activation of Abeta substrate cleavage – fluorescence polarization, HEK cells, dose response (AID 588439); format: functional, cell-based
T8 sequence (P14735 whole entry): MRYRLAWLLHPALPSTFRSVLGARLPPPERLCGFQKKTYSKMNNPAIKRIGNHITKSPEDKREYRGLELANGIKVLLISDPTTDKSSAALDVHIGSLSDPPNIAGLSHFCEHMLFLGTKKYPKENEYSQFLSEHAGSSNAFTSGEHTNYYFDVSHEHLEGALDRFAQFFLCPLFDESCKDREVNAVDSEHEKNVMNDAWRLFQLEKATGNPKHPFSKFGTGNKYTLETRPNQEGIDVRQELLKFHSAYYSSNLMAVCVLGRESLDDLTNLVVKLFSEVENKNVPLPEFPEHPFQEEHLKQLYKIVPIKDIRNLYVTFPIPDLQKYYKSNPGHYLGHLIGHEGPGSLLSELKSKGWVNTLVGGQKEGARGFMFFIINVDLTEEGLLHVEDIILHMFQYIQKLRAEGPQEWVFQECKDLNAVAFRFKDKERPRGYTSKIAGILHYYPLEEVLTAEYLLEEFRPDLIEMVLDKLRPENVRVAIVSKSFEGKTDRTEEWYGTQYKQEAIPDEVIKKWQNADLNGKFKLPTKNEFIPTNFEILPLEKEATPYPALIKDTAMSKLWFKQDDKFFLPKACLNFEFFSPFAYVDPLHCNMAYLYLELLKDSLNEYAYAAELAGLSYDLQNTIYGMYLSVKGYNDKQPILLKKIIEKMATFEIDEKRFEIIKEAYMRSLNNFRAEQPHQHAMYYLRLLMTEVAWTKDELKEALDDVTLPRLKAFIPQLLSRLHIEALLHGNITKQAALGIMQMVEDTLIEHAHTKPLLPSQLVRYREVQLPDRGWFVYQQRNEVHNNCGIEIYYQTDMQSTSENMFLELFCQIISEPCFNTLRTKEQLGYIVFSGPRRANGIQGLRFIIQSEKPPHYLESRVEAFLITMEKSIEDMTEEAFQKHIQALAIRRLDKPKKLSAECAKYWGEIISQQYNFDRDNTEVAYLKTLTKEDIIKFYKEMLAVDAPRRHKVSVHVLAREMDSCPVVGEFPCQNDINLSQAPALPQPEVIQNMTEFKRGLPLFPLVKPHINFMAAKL

Insulin-degrading enzyme [23] = biological target: T8, Insulin-degrading enzyme; assay: recombinant IDE activation, cell-free – biochemical, fluorescence polarization, counter-screen for IDE activator project, dose response (AID 588681)
[24] = biological target: T9, Carboxy-terminal domain RNA polymerase II polypeptide A small phosphatase 1 (Homo sapiens, UniProt Q9GZU7); assay: CTDSP1 inhibitors, concentration-response, biochemical, absorbance readout, ultra-high-throughput screen actives (AID 540297); format: functional
T9 sequence (Q9GZU7 whole entry): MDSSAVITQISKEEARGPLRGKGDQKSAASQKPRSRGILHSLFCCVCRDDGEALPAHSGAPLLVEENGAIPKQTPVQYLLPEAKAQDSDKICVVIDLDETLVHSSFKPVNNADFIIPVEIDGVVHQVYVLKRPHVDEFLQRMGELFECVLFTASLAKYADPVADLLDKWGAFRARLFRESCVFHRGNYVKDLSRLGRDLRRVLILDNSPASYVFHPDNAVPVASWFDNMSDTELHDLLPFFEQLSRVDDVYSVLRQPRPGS

HEK293 [25] = assay: membrane integrity loss in HEK cells – cell-based, fluorescence, cytotoxicity control for IDE activator project, dose response (AID 588440); format: functional; settings: Homo sapiens;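 further: cytotoxicity by LDH release measuring loss of membrane integrity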
HEK293 [26] = assay: optical interference in Abeta FP readout, dose response, artefact control for IDE activator project, biochemical, fluorescence polarization (AID 588442); format: functional, cell-based; settings: Homo sapiens

Cc1ccc(C)c(NC(=O)C2CC3CCC2C3)c1 (stereo unspecified)
EC50 [1]: 0.396 µM (active) | EC50 [2]: 0.402 µM (active) | EC50 [3]: 2.64 µM (active) | EC50 [4]: 5.03 µM (active) | EC50 [5]: 2.68 µM (active) | EC50 [6]: 1.63 µM (active)

COc1ccc(C(NC(=O)c2ccccc2)c2ccc3cccnc3c2O)cc1 (stereo unspecified)
IC50 (Jurkat): 2.67 µM (active) | IC50 (HEK293 [7]): 6.26 µM (active) | IC50 (HEK293 [8]): 23.2 µM (inactive)

O=C(N1CCCC1)n1ncc(-c2ccc(-c3ccccc3)cc2)n1
IC50 [9]: 170 µM (active) | IC50 [10]: 0.003 µM (active)

Cc1ccc(C(=O)N[C@@H](C)CN2CCC(n3c(=O)[nH]c4c(F)cccc43)CC2)cc1
IC50 (Phospholipase D2): 20 µM (active) | IC50 (Phospholipase D1): 0.222 µM (active)

O=C(O)c1ccc(-c2ccc(/C=c3/sc4nc5ccccc5n4c3=O)o2)cc1Cl
IC50 (Cysteine protease ATG4B): 12.2 µM (active) | EC50 [11]: 9.71 µM (inactive) | IC50 [12]: 11.5 µM (active) | IC50 [13]: > 66.6 µM (inactive) | IC50 [14]: 2.89 µM (active) | IC50 [15]: 123 µM (not active) | EC50 [16]: 5.96 µM (active) | EC50 [17]: 20.3 µM (active) | AC50 [18]: 2 µM (active) | IC50 (Phospholipase A2): 21.9 µM (inactive) | IC50 [19]: 48.4 µM (active) | EC50 [20]: 12.2 µM (active) | IC50 [21]: 5.86 µM (active)

O=C(N/N=C/c1cn(-c2ccccc2)nc1-c1ccc2c(c1)OCCO2)c1ccncc1
EC50 (Insulin-degrading enzyme [22]): > 54.7 µM (inactive) | EC50 (Insulin-degrading enzyme [23]): > 54.7 µM (inactive) | IC50 [24]: 6.51 µM (active) | IC50 (HEK293 [25]): 29.2 µM (inactive) | EC50 (HEK293 [26]): > 54.7 µM (inactive)

From ChEMBL document CHEMBL1201862, “PubChem BioAssay data set” (2004)
